In US12376590B2, “Compositions comprising pyridine carboxylate herbicides and azole carboxylate safeners” (Corteva Agriscience LLC, priority 2018, dated 2025):

Legend:
Assay in all cases: Greenhouse postemergence herbicidal safening trial, visual injury after 20-22 d
[1] = system: Canada thistle (CIRAR); format: in vivo, Cirsium arvense
From the text: (§1) Greenhouse Trial Methodology—Evaluation of Postemergence Herbicidal Safening in Crops
(§2) Seeds of the desired test plant species were planted in a 90:10% v/v (volume/volume) mixture of PRO-MIX® BX (Premier Tech Horticulture, Quakertown, PA, USA) and PROFILE® GREENS GRADE™ (Profile Products LLC, Buffalo Grove, IL, USA) planting mixture, which typically has a pH of 5.2 to 6.2 and an organic matter content of at least 50 percent, in plastic pots with a surface area of 103.2 square centimeters (cm^2). When required to ensure good germination and healthy plants, a fungicide treatment and/or other chemical or physical treatment was applied. The plants were grown for 7-36 days (d) in a greenhouse with an approximate 14-hour (h) photo-period which was maintained at about 23° C. during the day and 22° C. during the night. Nutrients and water were added on a regular basis and supplemental lighting was provided with overhead metal halide 1000-Watt lamps as necessary. The plants were employed for testing when they reached the second or third true leaf stage.
(§3) Emulsifiable concentrates of each of each pyridine carboxylate herbicide (Compound A or Compound B) were prepared at 100 grams acid equivalent per liter (g ae/L). An aliquot of each emulsifiable concentrate was placed in a 25 mL glass vial and diluted with an aqueous mixture of 1.25% (v/v) ACTIROB® B esterified rapeseed oil (Bayer Crop Science, Research Triangle Park, NC, USA) or MSO® Concentrate with LECI-TECH® methylated soybean oil (Loveland Products, Loveland, CO, USA) to obtain concentrated stock solutions at the highest application rate for each herbicide, based upon a 12 milliliter (mL) application volume at a rate of 187 liters per hectare (L/ha). The concentrated stock solutions were further diluted with an aqueous mixture of 1.25% v/v ACTIROB® B or MSO® Concentrate with LECI-TECH® to obtain stock solutions at reduced application rates for each herbicide. Spray solutions of the herbicide combinations (Compound A or Compound B plus safener) were prepared by adding weighed amounts or aliquots of the azole carboxylate safener to the stock solutions of Compound A or Compound B to form 12-mL spray solutions in two-way combinations.
(§4) The spray solutions were applied to the plant material with an overhead Mandel track sprayer equipped with 8002E nozzles calibrated to deliver 187 L/ha over an application area of 0.503 square meters (m^2) at a spray height of 18 inches (43 centimeters (cm)) above the average plant canopy. Control plants were sprayed in the same manner with the solvent blank. All herbicide (component a) application rates are given as “g ae/ha” and all safener (component b) application rates are given as “g ai/ha.”
(§5) The treated plants and control plants were placed in a greenhouse as described above and watered by sub-irrigation to prevent wash-off of the test compounds. After 20-22 d, the condition of the test plants as compared with that of the control plants was determined visually and scored on a scale of 0 to 100 percent where 0 corresponds to no injury and 100 corresponds to complete kill.

[2] = system: common sunflower (HELAN); format: in vivo, Helianthus annuus
From the text: as §1, §2, §3, §4, §5

[3] = system: wild oat (AVEFA); format: in vivo, Avena fatua
From the text: as §1, §2, §3, §4, §5

[4] = system: common lambsquarters (CHEAL); format: in vivo, Chenopodium album L.
From the text: as §1, §2, §3, §4, §5

[5] = system: large crabgrass (DIGSA); format: in vivo, Digitaria sanguinalis
From the text: as §1, §2, §3, §4, §5

[6] = system: wild pansy (VIOTR); format: in vivo, Viola tricolor
From the text: as §1, §2, §3, §4, §5

[7] = system: common rice (ORYSA); format: in vivo, Oryza sativa
From the text: as §1, §2, §3, §4, §5

[8] = system: blackgrass (ALOMY); format: in vivo, Alopecurus myosuroides
From the text: as §1, §2, §3, §4, §5

[9] = system: maize (ZEAMX); format: in vivo, Zea mays
From the text: as §1, §2, §3, §4, §5

[10] = system: Johnson grass (SORHA); format: in vivo, Sorghum halepense
From the text: as §1, §2, §3, §4, §5

[11] = system: Italian ryegrass (LOLMU); format: in vivo, Lolium multiflorum
From the text: as §1, §2, §3, §4, §5

[12] = system: soybean (GLXMA); format: in vivo, Glycine max
From the text: as §1, §2, §3, §4, §5

[13] = system: wild buckwheat (POLCO); format: in vivo, Polygonum convolvulus
From the text: as §1, §2, §3, §4, §5

Measured: % visual injury Ob

CCOC(=O)C1=NN(c2ccc(Cl)cc2Cl)C(C)(C(=O)OCC)C1 (centres unmarked) [Mefenpyr-diethyl, mefenpyr-diethyl]
0%: [1]; Mefenpyr-diethyl 20 g/ha | [1]; Mefenpyr-diethyl 40 g/ha | [1]; Mefenpyr-diethyl 80 g/ha | [2]; Mefenpyr-diethyl 20 g/ha | [2]; Mefenpyr-diethyl 40 g/ha | [2]; Mefenpyr-diethyl 80 g/ha | [2]; applied alone, 20 g/ha | [2]; applied alone, 40 g/ha | [2]; applied alone, 80 g/ha | [2]; applied alone, 120 g/ha | [3]; Mefenpyr-diethyl 20 g/ha | [3]; Mefenpyr-diethyl 40 g/ha | [3]; Mefenpyr-diethyl 80 g/ha | [4]; Mefenpyr-diethyl 20 g/ha | [4]; Mefenpyr-diethyl 40 g/ha | [4]; Mefenpyr-diethyl 80 g/ha | [5]; Mefenpyr-diethyl 20 g/ha | [5]; Mefenpyr-diethyl 40 g/ha | [5]; Mefenpyr-diethyl 80 g/ha | [6]; Mefenpyr-diethyl 20 g/ha | [6]; Mefenpyr-diethyl 40 g/ha | [6]; Mefenpyr-diethyl 80 g/ha | [7]; Mefenpyr-diethyl 20 g/ha | [7]; Mefenpyr-diethyl 40 g/ha | [7]; Mefenpyr-diethyl 80 g/ha | [8]; Mefenpyr-diethyl 20 g/ha | [8]; Mefenpyr-diethyl 40 g/ha | [8]; Mefenpyr-diethyl 80 g/ha | [9]; Mefenpyr-diethyl 20 g/ha | [9]; Mefenpyr-diethyl 40 g/ha | [9]; Mefenpyr-diethyl 80 g/ha | [9]; applied alone, 20 g/ha | [9]; applied alone, 40 g/ha | [9]; applied alone, 80 g/ha | [9]; applied alone, 120 g/ha | [10]; Mefenpyr-diethyl 20 g/ha | [10]; Mefenpyr-diethyl 40 g/ha | [10]; Mefenpyr-diethyl 80 g/ha | [11]; Mefenpyr-diethyl 20 g/ha | [11]; Mefenpyr-diethyl 40 g/ha | [11]; Mefenpyr-diethyl 80 g/ha | [12]; Mefenpyr-diethyl 20 g/ha | [12]; Mefenpyr-diethyl 40 g/ha | [12]; Mefenpyr-diethyl 80 g/ha | [13]; Mefenpyr-diethyl 20 g/ha | [13]; Mefenpyr-diethyl 40 g/ha | [13]; Mefenpyr-diethyl 80 g/ha
